Data: US20230330081A1, “PHARMACEUTICAL COMPOSITION FOR TREATING TUMORS” (EISAI R&D MANAGEMENT CO., LTD., priority 2020, published 2023)

Columns and labels:
Format in all cases: in vivo
[1] = test system: mouse hepatocellular carcinoma cell line BNL 1 ME A.7R.1; assay: Antitumor effect in mouse hepatocellular carcinoma cell line (BNL 1 ME A.7R.1) graft model
Method: Example 3 Antitumor effect by combination of compound A and anti-PD-1 antibody in mouse hepatocellular carcinoma cell line (BNI, 1 ME A.7R.1) graft model
The antitumor effect of administering compound A and anti-M-1 antibody was evaluated in BALB/c mice (BALB/cAnNCriCrli, female, Japan Charles River) with 10 mice per group.
The grafted cells were pre-conditioned in BALB/c mice, A suspension of the mouse hepatocellular carcinoma cell line line BNL 1 ME A.7R.1 (ATCC) was subcutaneously grafted onto the right side of BALB/c mice (BALB/cArtNCriCrlj, male, Japan Charles River), at 5×10^6 cells per mouse. After grafting, the formed tumors were extracted and finely cut. The mixture was then stirred with a GentleMACS (Miltenvi Biotec K.K.) to obtain a monocellular suspension. After passing through a cell strainer, the cells were collected by centrifugation and cultured.
(§1) The mouse hepatocellular carcinoma cell line BNL 1 ME A.7R.1 established by this method was suspended in HBSS to a concentration of 1×10^8/mL. The mixture was subsequently grafted onto the right side of BALB/c (BALB/cAnNCrICrlj, female, Japan Charles River) in amounts of 0.1 mL each, and the antitumor effect was evaluated.
(§2) On the 4th day after grafting, the long and short diameters of the tumors were measured using an electronic digital caliper (Digimaticlm caliper by Mitsutoyo Corp.). The mice were divided into groups in such a manner that the average tumor volumes were the same in each group. The tumor volumes were calculated by the following formula.
Tumor volume […]=Long diameter (mm)×short diameter (mm)×short diameter (mm)/2
(§3) Compound A was dissolved in water for injection (Otsuka Pharmaceutical Factory, Inc.) to a concentration of 2.5 mg/mL. The anti-mouse PD-1 antibody (BioXcell) was diluted with physiological saline (Otsuka Pharmaceutical Factory, Inc.) to a concentration of 1 mg/mL.
(§4) Mice in the compound A administration group were given compound A 1w oral administration at a dose of 25 mg/kg (10 mL/kg), once per day for 7 days. Mice in the anti-PD-1 antibody administration group were intraperitoneally administered a dose of 200 μg/mouse (200 μL/mouse) on day 0 and day 3, where the starting day of administration was defined as day 0. The mice in the compound A and anti-PD-1 antibody combination group were administered both drugs in the same manner described above.
With the starting day of administration defined as day 0, the tumor volume of each mouse was measured on day 3 and day 7.
The tumor volumes in the control group and in each group on day 7 were compared in Dunnett's multiple comparison test. The final significance level was as follows.

[2] = test system: mouse renal cell carcinoma cell line RAG; assay: Antitumor effect in mouse renal cell carcinoma cell line (RAG) graft model
Method: Example 2 Antitumor effect by combination of compound A and anti-PD-1 antibody in mouse renal cell carcinoma cell line (RAG) graft model
The antitumor effect of administering compound A and anti-PD-1 antibody was evaluated in BALB/c mice (BALB/cAnNCriCrlj, female, Japan Charles River) with 10 mice per group.
The grafted cells were pre-conditioned in BALB/c mice. The mouse renal cell carcinoma cell line RAG (ATCC) was suspended in EIBSS to a concentration of 2×10^8/mL. An equal volume of Matrigel™ matrix (Japan Becton Dickinson) was added to and thoroughly mixed with the suspension. The mixture was subcutaneously grafted on the right side of BALB/c mice (BALB/cAnNCriCrlj, female, Japan Charles River), at 0.1 mL each. After grafting, the formed tumors were extracted and finely cut. A Tumor Dissociation Kit, Mouse (Miltenyi Biotec K.K.) was then used for stirring in a GentleMACS (Miltenyi Biotec K.K.) to obtain a monocellular suspension. After passing through a 70 μm cell strainer, the cells were collected by centrifugation and cultured in medium containing 10% bovine serum.
as §1, with “renal cell” for “hepatocellular”, “RAG” for “BNL 1 ME A.7R.1”, “[…].” for “1×10^8/mL.”, “(BALB/cAnNCriCrij,” for “(BALB/cAnNCrICrlj,”
as §2, with “7th” for “4th”, “(Digirnatic™” for “(Digimaticlm”
(§5) Tumor volume (mm)=Long diameter (n)×short diameter (mm)×short diameter (mm)/2
as §3
as §4, with “by” for “1w”, “days,” for “days.”, “lig/mouse” for “μg/mouse”
With the starting day of administration defined as day 0, the tumor volume of each mouse was measured on day 3 and day 7, The mean tumor volumes in each group are shown in Table 2 and FIG. 2. […]

[3] = test system: mouse breast cancer cell line 4T1-Luc2 AcGFP; assay: Antitumor effect in mouse breast cancer cell line (4T1-Luc2 AcGFP) graft model; conditions: BALB/c mice, anti-PD-1 antibody 0.2 mg/mouse intraperitoneal day 0, 4, 7, 11
Method: Example 1 Antitumor effect by combination of compound A and anti-PD-1 antibody in mouse breast cancer cell line (4T1-Luc2 AcGFP) graft model
The antitumor effect of administering compound A and anti-PD-1 antibody was evaluated in BALB/c mice (BALB/cAriNCriCrij, female, Japan Charles River) with 6 mice per group.
The mouse breast cancer cell line 4T1 (ATCC) was seeded in a 6-well microplate (Falcon), at a cell count of 1.5×10^5 per well. The culture medium used was RPMI-1640 medium containing 10% FBS, penicillin, streptomycin and 2-mercaptoethanol (FujiFilm-Wako). The seeded cells were cultured overnight using an incubator under conditions of 5% CO2, 37° C. The culture medium was replaced on the following day.
Vector pPBcmvIP-mcs was constructed from PB-CMV-MCS-EF1α-Puro vector (SBI; Catalog No.: PB510B-1), removing EF1-Puro and substituting 1RES-Puro. A Luc2/AcGFP fusion gene was then inserted between the pPBcinvIP-mcs CMV promoter and IRES to express Luciferase (Luc) and Green Fluorescent Protein (GFP), to obtain vector pPBcinvIP Luc2-AcGFP. During the process of constructing each vector, insertion of the separated fragments was confirmed by an established method.
The vector pPBcrnvIP Luc2-AcGFP in 10 mM Tris-C1 (pH 8.0) and 1 mlbJ EDTA (pH 8.0) (“TE Buffer”) (1.67 μg), Super PiggyBac Transposase Expression Vector (System Biosciences, LLC) in TE Buffer (0.33 μg) and X-treamGene reagent (Roche) (8 μL) were mixed, and the mixture was adjusted to a total amount of 210 μL with Opti-MEM (Thermo Fischer Scientific). The obtained mixture was allowed to stand at room temperature for 15 minutes, and then added to the cultured 4T1 cells. The medium was exchanged and subculturing was carried out in a T75 flask, after which culturing was continued under conditions of 5% CO2, 37° C. After 4 days, culturing was carried out in 2 μg/mL puromycin-containing medium.
Cells were selected twice with a flow cytometer, using AcGFP positivity as the marker. A mycoplasma removal reagent was added to the cells and culturing was continued for 8 days.
Cells of the mouse breast cancer cell line 4T1-Luc2 AcGFP established by the method described above were suspended in HBSS (FujiFilm-Wako) to a concentration of 2×10^7/mL. The mixture was grafted into mammary gland fat of BALB/c (BALB/cAriNCriCrlj, female. Japan Charles River) in amounts of 0.05 mL each, and the antitumor effect was evaluated.
as §2, with “(Digimatic™” for “(Digimaticlm”, “Corp.),” for “Corp.).”
as §5
Compound A was dissolved in water for injection (Otsuka Pharmaceutical Factory, Inc.) to a concentration of 2.5 mg/mL. The anti-mouse PD-1 antibody (BioXcell) was diluted with PBS(−) (FujiFilm-Wako) to a concentration of 1 mg/mL. […]
With the starting day of administration defined as day 0, the tumor volume of each mouse was measured on day 4, day 7, day 11 and day 14.
The tumor volume on day 14 was statistically analyzed by a One-way ANOVA statistical test, or if […] was found in the test, by the Tukey-Kramer method. […]

[4] = day 7, Dunnett's multiple comparison test

CNC(=O)n1ccc2cc(Oc3ccnc(NC(=O)c4ccc(C5CCN(CCO)CC5)cc4)c3)c(OCCOC)cc21 [Compound A, 5-((2-(4-(1-(2-hydroxyethyl)piperidin-4-yl)benzamide)pyridin-4-yl)oxy)-6-(2-methoxyethoxy)-N-methyl-1H-indole-1-carboxamide]
mean tumor volume, Day 0 ([1]; Day 0 (starting day of administration), BALB/c mice, 10 per group, compound A 25 mg/kg oral once per day for 7 days, anti-PD-1 antibody 200 μg/mouse intraperitoneal day 0 and 3): 109.0 mm^3
mean tumor volume, Day 3 ([1]; Day 3, BALB/c mice, compound A 25 mg/kg oral once per day, anti-PD-1 antibody 200 μg/mouse intraperitoneal day 0 and 3): 223.6 mm^3
mean tumor volume, Day 7 ([1]; Day 7, BALB/c mice, compound A 25 mg/kg oral once per day, anti-PD-1 antibody 200 μg/mouse intraperitoneal day 0 and 3): 221.4 mm^3
difference in tumor volume between the control group and the treatment group [1, 4]: No statistically significant difference
mean tumor volume, Day 0 ([2]; Day 0 (starting day of administration), BALB/c mice, 10 per group, compound A 25 mg/kg oral once per day for 7 days, anti-PD-1 antibody 200 ug/mouse intraperitoneal day 0 and 3): 58.8 mm^3
mean tumor volume, Day 3 ([2]; Day 3, BALB/c mice, compound A 25 mg/kg oral once per day, anti-PD-1 antibody 200 ug/mouse intraperitoneal day 0 and 3): 72.5 mm^3
mean tumor volume, Day 7 ([2]; Day 7, BALB/c mice, compound A 25 mg/kg oral once per day, anti-PD-1 antibody 200 ug/mouse intraperitoneal day 0 and 3): 107.5 mm^3
difference in tumor volume between the control group and the treatment group [2, 4]: No statistically significant difference
mean tumor volume, Day 0 ([3]; Day 0 (starting day of administration), 6 per group, compound A 25 mg/kg oral once per day for 14 days): 77.3 mm^3
mean tumor volume, Day 4 ([3]; Day 4, compound A 25 mg/kg oral once per day): 139.0 mm^3
mean tumor volume, Day 7 ([3]; Day 7, compound A 25 mg/kg oral once per day): 131.2 mm^3
mean tumor volume, Day 11 ([3]; Day 11, compound A 25 mg/kg oral once per day): 226.0 mm^3
mean tumor volume, Day 14 ([3]; Day 14, compound A 25 mg/kg oral once per day): 314.6 mm^3
